Measurements reported in ChEMBL document CHEMBL1201862, “PubChem BioAssay data set” (2004).
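Test compounds were applied to cells in 96-well plates for 48 hours at 5 doses. At the GI50, growth is halved.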 Active and inactive are the calls of the source. Rule as the data show it: active = GI50 up to about 1.1 µM and inactive = higher.

Tests used:
Assay in all cases: DTP human tumour cell line panel, 48 h
786-0 = tested on: 786-0
ACHN = tested on: ACHN
CAKI-1 = tested on: CAKI-1
HCT-15 = tested on: HCT-15
HL-60 = tested on: HL-60
HOP-62 = tested on: HOP-62
Hs-578T = tested on: Hs-578T
K562 = tested on: K562
LOX IMVI = tested on: LOX IMVI
MDA-N = tested on: MDA-N
NCI-H226 = tested on: NCI-H226
SF-268 = tested on: SF-268
SF-295 = tested on: SF-295
SF-539 = tested on: SF-539
SK-MEL-28 = tested on: SK-MEL-28
SK-MEL-2 = tested on: SK-MEL-2
SK-OV-3 = tested on: SK-OV-3
SNB-75 = tested on: SNB-75
UACC-257 = tested on: UACC-257
MOLT-4 = tested on: MOLT-4

Compound | GI50 (786-0) | GI50 (ACHN) | GI50 (CAKI-1) | GI50 (HCT-15) | GI50 (HL-60) | GI50 (HOP-62) | GI50 (Hs-578T) | GI50 (K562) | GI50 (LOX IMVI) | GI50 (MDA-N) | GI50 (NCI-H226) | GI50 (SF-268) | GI50 (SF-295) | GI50 (SF-539) | GI50 (SK-MEL-28) | GI50 (SK-MEL-2) | GI50 (SK-OV-3) | GI50 (SNB-75) | GI50 (UACC-257) | GI50 (MOLT-4)
CCOc1ccc2ccc3cccnc3c2n1 | 66.2 µM (inactive) | 40.6 µM (inactive) | > 100 µM (inactive) | 54.3 µM | 22.3 µM (inactive) | 18.5 µM (inactive) | > 100 µM (inactive) | 31.9 µM (inactive) | 49.1 µM (inactive) | > 100 µM (inactive) | 39 µM (inactive) | > 100 µM (inactive) | 39.3 µM (inactive) | > 100 µM (inactive) | > 100 µM (inactive) | 81.7 µM (inactive) | 43.4 µM (inactive) | 85.9 µM (inactive) | 26.9 µM (inactive) | –
COc1cccc(OC)c1/C=C1\OC(=O)c2cccc(OC)c21 | 5.02 µM (inactive) | 8.59 µM (inactive) | 4.68 µM (inactive) | 2.24 µM | 0.931 µM (active) | 5.62 µM (inactive) | 3.96 µM (inactive) | 0.527 µM (active) | 6.28 µM (inactive) | 0.596 µM (active) | 3.84 µM (inactive) | 6.4 µM (inactive) | 3.13 µM (inactive) | 2.3 µM (inactive) | 6.7 µM (inactive) | 4.14 µM (inactive) | 5.2 µM (inactive) | 2.96 µM (inactive) | 7.43 µM (inactive) | 5.64 µM (inactive)
N#CC1=C(N)OC2=C(CSc3ccccc32)C1c1ccc(Br)cc1 (stereo unspecified) | 7.83 µM (inactive) | – | 4.49 µM (inactive) | 4.7 µM | 2.59 µM (inactive) | 14.1 µM (inactive) | 28.1 µM (inactive) | 3.38 µM (inactive) | 2.6 µM (inactive) | 3.32 µM (inactive) | 11.5 µM (inactive) | 11.1 µM (inactive) | 12.4 µM (inactive) | 3.52 µM (inactive) | 12.9 µM (inactive) | 5.7 µM (inactive) | 13.4 µM (inactive) | 7.62 µM (inactive) | 12.1 µM (inactive) | 2.84 µM (inactive)
CN(C)CCCCCNc1c2ccccc2nc2cccc([N+](=O)[O-])c12 | 0.00133 µM (active) | 0.000766 µM (active) | 0.00229 µM (active) | – | 0.00143 µM (active) | 0.00149 µM (active) | 0.00197 µM (active) | 0.000986 µM (active) | 0.00289 µM (active) | 0.000187 µM (active) | 0.0214 µM (active) | 0.00118 µM (active) | 0.00105 µM (active) | 0.0036 µM (active) | 0.00481 µM (active) | 0.00107 µM (active) | 0.00607 µM (active) | 0.00163 µM (active) | 0.00918 µM (active) | 0.000807 µM (active)
CCOC(=O)c1c2ccccc2n2c(=O)n(C)nnc12 | 89.3 µM (inactive) | > 84.1 µM (inactive) | > 100 µM (inactive) | > 100 µM | 1.53 µM (inactive) | 12.4 µM (inactive) | > 100 µM (inactive) | > 100 µM (inactive) | > 100 µM (inactive) | > 100 µM (inactive) | > 100 µM (inactive) | 58.9 µM (inactive) | 40.1 µM (inactive) | > 56.2 µM (inactive) | > 100 µM (inactive) | > 100 µM (inactive) | > 80.5 µM (inactive) | 46.3 µM (inactive) | > 100 µM (inactive) | –
CCOC(=O)C1=NN(c2ccccc2)C(=O)/C1=C\NC(=S)C(N)=S | 20.7 µM (inactive) | 21.5 µM (inactive) | 38.1 µM (inactive) | 34.1 µM | 38.9 µM (inactive) | > 100 µM (inactive) | 32.7 µM (inactive) | 38 µM (inactive) | 37.8 µM (inactive) | 32.8 µM (inactive) | 54.5 µM (inactive) | 38.5 µM (inactive) | 74.6 µM (inactive) | 23.2 µM (inactive) | 39.8 µM (inactive) | 43.1 µM (inactive) | 75.7 µM (inactive) | 47.3 µM (inactive) | 68.5 µM (inactive) | 26.4 µM (inactive)
COc1ccc(/C(Cl)=C(\C=O)c2ccc(OC)c(OC)c2)cc1OC | > 100 µM (inactive) | > 100 µM (inactive) | > 100 µM (inactive) | 83 µM | 22.2 µM (inactive) | > 84.7 µM (inactive) | > 100 µM (inactive) | > 100 µM (inactive) | 33.7 µM (inactive) | > 100 µM (inactive) | 91.6 µM (inactive) | 37.2 µM (inactive) | 30.1 µM (inactive) | 94.6 µM (inactive) | > 94.6 µM (inactive) | 94.4 µM (inactive) | > 100 µM (inactive) | 22.9 µM (inactive) | 41.7 µM (inactive) | > 100 µM (inactive)
Cc1cc(C[C@H]2O[C@@H]3OC(C)(C)O[C@@H]3[C@H]3OC(C)(C)O[C@H]32)c2ccccc2n1 | > 100 µM (inactive) | > 100 µM (inactive) | 56.6 µM (inactive) | 76.4 µM | 27.5 µM (inactive) | 55.3 µM (inactive) | 26.4 µM (inactive) | 48.1 µM (inactive) | > 100 µM (inactive) | 41.3 µM (inactive) | 55.3 µM (inactive) | > 100 µM (inactive) | > 100 µM (inactive) | > 100 µM (inactive) | > 100 µM (inactive) | 36 µM (inactive) | > 100 µM (inactive) | > 100 µM (inactive) | > 100 µM (inactive) | 31.8 µM (inactive)
CCO/C=N/C1=C(C#N)C(c2ccc(OC)c(OC)c2)c2c(-c3ccccc3)nn(-c3ccccc3)c2O1 (stereo unspecified) | 13.6 µM (inactive) | 13.2 µM (inactive) | 17 µM (inactive) | 5.11 µM | 3.21 µM (inactive) | 17.7 µM (inactive) | 20.5 µM (inactive) | 6.68 µM (inactive) | 15.4 µM (inactive) | 18.7 µM (inactive) | 11.3 µM (inactive) | 18.5 µM (inactive) | 11.1 µM (inactive) | 8.67 µM (inactive) | 15 µM (inactive) | 18.5 µM (inactive) | 21.2 µM (inactive) | 15.5 µM (inactive) | > 100 µM (inactive) | 8.02 µM (inactive)
CC(C)C1=CC23CCC4C(C)(C(=O)O)CCCC4(C)C2CC1C1C(=O)N(c2ccc(C(=O)O)cc2)C(=O)C13 (stereo unspecified) | > 100 µM (inactive) | > 100 µM (inactive) | > 100 µM (inactive) | > 100 µM | > 100 µM (inactive) | > 100 µM (inactive) | > 100 µM (inactive) | > 100 µM (inactive) | > 100 µM (inactive) | > 100 µM (inactive) | > 100 µM (inactive) | > 100 µM (inactive) | > 100 µM (inactive) | > 100 µM (inactive) | > 100 µM (inactive) | > 100 µM (inactive) | > 100 µM (inactive) | > 100 µM (inactive) | > 100 µM (inactive) | > 100 µM (inactive)
